pIC50: −log10 of the molar value.
Tests used:
[1] = Antiproliferative activity against human Bel7402 cells assessed as cell viability after 48 hrs by MTT assay; assay type: functional, cell-based; conditions: Bel-7402, 48 h
[2] = system: A549; experiment: Antiproliferative activity against human A549 cells assessed as cell viability after 48 hrs by MTT assay; assay type: functional, cell-based; conditions: A549, 48 h
[3] = system: HeLa; experiment: Antiproliferative activity against human HeLa cells assessed as cell viability after 48 hrs by MTT assay; assay type: functional, cell-based
[4] = system: MCF7; experiment: Antiproliferative activity against human MCF7 cells assessed as cell viability after 48 hrs by MTT assay; assay type: functional, cell-based; conditions: MCF7, 48 h
[5] = Inhibition of rat liver TrxR assessed as increase in absorbance by DTNB assay
[6] = Cell cycle arrest in human Bel7402 cells assessed as cells accumulation at Sub-G1 phase at 50 uM after 48 hrs by flow cytometry (reference value: 1.47%); assay type: functional, cell-based; conditions: Bel-7402
[7] = Cell cycle arrest in human Bel7402 cells assessed as cells accumulation at G1 phase at 50 uM after 48 hrs by flow cytometry (reference value: 62.60%); assay type: functional, cell-based; conditions: Bel-7402
[8] = Cell cycle arrest in human Bel7402 cells assessed as cells accumulation at S phase at 50 uM after 48 hrs by flow cytometry (reference value: 13.99%); assay type: functional, cell-based; conditions: Bel-7402
[9] = Cell cycle arrest in human Bel7402 cells assessed as cells accumulation at G2/M phase at 50 uM after 48 hrs by flow cytometry (reference value: 16.61%); assay type: functional, cell-based; conditions: Bel-7402
[10] = system: Bel-7402; experiment: Induction of apoptosis in human Bel7402 cells assessed as detection error cells at 50 uM after 48 hrs by flow cytometry (reference value: 0.43%); assay type: functional
[11] = system: Bel-7402; experiment: Induction of apoptosis in human Bel7402 cells assessed as necrotic cells at 50 uM after 48 hrs by flow cytometry (reference value: 0.19%); assay type: functional
[12] = system: Bel-7402; experiment: Induction of apoptosis in human Bel7402 cells assessed as apoptotic cells at 50 uM after 48 hrs by flow cytometry (reference value: 0.73%); assay type: functional
[13] = system: Bel-7402; experiment: Induction of apoptosis in human Bel7402 cells assessed as live cells at 50 uM after 48 hrs by flow cytometry (reference value: 98.65%); assay type: functional
[14] = species: Rattus norvegicus; experiment: Inhibition of rat liver TrxR assessed as increase in absorbance at 50 uM by DTNB assay
[15] = species: Rattus norvegicus; experiment: Inhibition of rat liver TrxR assessed as increase in absorbance at 10 uM by DTNB assay
[16] = Aqueous solubility of the compound in phosphate buffer at pH 7.4; assay type: physicochemical

**Q.** What does the source list for `COc1cc(/C=C/c2ccc(-n3[se]c4cc(OC)c(OC)cc4c3=O)cc2)cc(OC)c1`?
**A.** pIC50 [1]: 4.60; pIC50 [2]: 4.28; pIC50 [3]: 4.50; pIC50 [4]: 4.05; pIC50 [5]: 5.12

**Q.** Which results are given for `O=c1c2ccccc2[se]n1-c1ccccc1` [EBSELEN]?
**A.** pIC50 [1]: 4.17; pIC50 [2]: < 4.00; pIC50 [3]: 4.11; pIC50 [4]: < 4.00; pIC50 [5]: 5.07; Activity [6]: 3.32%; Activity [7]: 58.7%; Activity [8]: 11.2%; Activity [9]: 21.2%; Activity [10]: 0.56%; Activity [11]: 0.72%; Activity [12]: 7.94%; Activity [13]: 90.8%

**Q.** With `COc1cccc(/C=C/c2ccc(-n3[se]c4ccccc4c3=O)cc2)c1` as the compound, how does the pIC50 [1] read?
**A.** The pIC50 was 4.88.

**Q.** What about the pIC50 [2] of the same compound?
**A.** The pIC50 was 4.98.

**Q.** And the pIC50 [3]?
**A.** Its pIC50 is 5.13.

**Q.** And the pIC50 [4]?
**A.** Its pIC50 is 5.02.

**Q.** And the pIC50 [5]?
**A.** Its pIC50 is 4.89.

**Q.** With `Oc1ccc(/C=C/c2cc(O)cc(O)c2)cc1` [RESVERATROL] as the compound, how does the pIC50 [1] read?
**A.** Its pIC50 is 4.29.

**Q.** And the pIC50 [2]?
**A.** Its pIC50 is less than 4.00.

**Q.** And the pIC50 [3]?
**A.** Its pIC50 is 4.32.

**Q.** What about the pIC50 [4] of the same compound?
**A.** Its pIC50 is less than 4.00.

**Q.** What about the inhibition [14] of the same compound?
**A.** The inhibition was 26.1%.

**Q.** And the Activity [6]?
**A.** Its Activity is 0.15%.

**Q.** What about the Activity [7] of the same compound?
**A.** Its Activity is 59%.

**Q.** And the Activity [8]?
**A.** Its Activity is 9.83%.

**Q.** And the Activity [9]?
**A.** The Activity was 31.2%.

**Q.** And the Activity [10]?
**A.** Its Activity is 0.03%.

**Q.** What about the Activity [11] of the same compound?
**A.** The Activity was 0.01%.

**Q.** And the Activity [12]?
**A.** The Activity was 13.2%.

**Q.** What about the Activity [13] of the same compound?
**A.** The Activity was 85.3%.

**Q.** With `COc1cc(/C=C/c2ccc(-n3[se]c4ccccc4c3=O)cc2)cc(OC)c1OC` as the compound, how does the pIC50 [1] read?
**A.** Its pIC50 is 5.95.

**Q.** And the pIC50 [2]?
**A.** Its pIC50 is 5.51.

**Q.** What about the pIC50 [3] of the same compound?
**A.** The pIC50 was 5.25.

**Q.** What about the pIC50 [4] of the same compound?
**A.** Its pIC50 is 5.40.

**Q.** And the pIC50 [5]?
**A.** The pIC50 was 5.24.

**Q.** With `O=c1c2ccccc2[se]n1-c1ccc(/C=C/c2ccccc2)cc1` as the compound, how does the pIC50 [1] read?
**A.** Its pIC50 is 4.91.

**Q.** And the pIC50 [2]?
**A.** The pIC50 was 4.62.

**Q.** And the pIC50 [3]?
**A.** The pIC50 was 4.45.

**Q.** What about the pIC50 [4] of the same compound?
**A.** Its pIC50 is 4.61.

**Q.** And the inhibition [15]?
**A.** The inhibition was 22.4%.

**Q.** Which results are given for `COc1cc(/C=C/c2ccc(-n3[se]c4ccc(Cl)cc4c3=O)cc2)cc(OC)c1`?
**A.** solubility [16]: < 50 µM; inhibition [15]: 31.2%
